Assay results from patent US20140256666A1, “ANTIBIOTIC CONJUGATES WITH NONSTEROIDAL ANTI-INFLAMMATORY DRUGS” (Allergan, Inc., priority 2013, published 2014).

Tested on: Human Corneal Epithelial Cells
Experiment: In vitro corneal permeability, cellular uptake and metabolic stability in human corneal epithelial cells
Format: in vitro ADME
Conditions: two hour incubation with Human Corneal Epithelial Cells, 50 μM final concentration
Description: Clonetics® human corneal epithelial cells (HCEC) were purchased from Lonza Walkersville, Inc. (Walkersville, Md.) pre-seeded on Costar Transwell™ filters in a 24-well plate. Upon receipt HCEC cells were cultured overnight in a 37° C. incubator ([…], 5% CO2) in media provided by the vendor. Permeability studies were performed within 24 hours of receipt. Dosing solutions 100 μM test article (i.e. ester linked hybrids) were prepared in Lonza's proprietary media by diluting a 50 mM stock solution of the test article in dimethyl sulfoxide. The final percentage of solvent in the incubation was less than 1.0% to prevent inhibition of enzymatic activity or effects on the cell membrane. Transepithelial electrical resistance (TEER) was measured for all wells using a voltohmmeter with STX-2 electrodes (World Precision Instruments Inc., Sarasota, Fla.) after adding 100 μL pre-warmed (37° C.) media to the apical compartment. […] A final TEER value was measured and recorded for all wells.
To evaluate human corneal epithelial cell integrity incubations were conducted using 2 μCi/mL ^3H-mannitol for the same 2 hour incubation period with aliquots taken from the basolateral compartment. ^3H-Mannitol samples were analyzed using liquid scintillation counting. […]

COc1c(N2CCN(C(=O)OCOC(=O)C(C)c3ccc(-c4ccccc4)c(F)c3)C(C)C2)c(F)cc2c(=O)c(C(=O)O)cn(C3CC3)c12 (stereo not shown) [Compound 16, 1-cyclopropyl-6-fluoro-7-{4-[({[2-(2-fluorobiphenyl-4-yl)propanoyl]oxy}methoxy)carbonyl]-3-methylpiperazin-1-yl}-8-methoxy-4-oxo-1,4-dihydroquinoline-3-carboxylic acid]
cellular uptake of hybrid (parent) and hydrolyzed metabolites (FIG. 1): penetrates into human corneal epithelial cells and is enzymatically hydrolyzed to the individual antibiotic and NSAID
